Measured values taken from patent US20260306463A1, “SIK INHIBITORS TO TREAT CHRONIC KIDNEY DISEASE” (The General Hospital Corporation, priority 2023, published 2026).
Entries after “also recorded” stand apart in the source; their conditions may differ.

How the values were obtained:
human kidney organoids [1] = assay: RNA-seq of cisplatin-injured human kidney organoids; type: cell-based; conditions: for injury markers (Col8al, Fibronectin-1, Serpinel) / markers of intact proximal integrity (Lrp2 and Hnf4a): RNA-seq, cisplatin vs vehicle, or SK-124 vs DMSO within cisplatin-treated organoids
Description: FIGS. 13A-13E. Transcriptomic effects of SK-124 in cisplatin-induced human kidney organoid model. RNA-seq was performed on kidney organoid RNA samples (n=4/group) from FIG. 8. Volcano plot show gene regulated (>2-fold change, p(adj)<0.05) by cisplatin (versus vehicle, A) or within cisplatin-treated organoids by SK-124 (versus DMSO control, B). In Volcano plot, representative fibrosis/injury markers (Col8a1, Fni, Serpinel) and proximal tubule integrity (Lrp2 and Hnf4a) are shown. Scatterplot (C) and heatmap (D) showing integration of individual RNA-seq comparisons.
(§1) Isolated RNA samples from the mouse adenine diet study and human kidney organoid experiment were submitted to Novogene and bulk-RNA sequencing on NovaSeq X Plus Ilumina Novoseq Platform. Sequencing reads were mapped to the mouse reference genome (mm10/GRCm38) or human reference genome (GRCh38/hg38) using Salmon and differential gene expression analysis was performed using DESeq2.

human kidney organoids [2] = assay: P21, gammaH2AX and LTL immunostaining in cisplatin-injured human kidney organoids; type: cell-based; conditions: for gammaH2AX induction: cisplatin; for gammaH2AX induction / P21 expression: concurrent SK-124 (FIG. 9); for LTL-positive proximal tubule cells / P21 / gammaH2AX: dose response, five cisplatin cycles (FIG. 11); for P21 expression: indicated number of cisplatin cycles
Description: FIG. 9. SK-124 treatment protects from cisplatin-induced P21 induction in human kidney organoids. Organoids were treated with the indicated number of cisplatin cycles in the presence of DMSO vehicle (top) or SK-124 (bottom). Organoids were then processed for P21 immunofluorescent microscopy.
FIG. 11. SK-124 protects human kidney organoids from cisplatin injury in a dose-dependent manner. Organoids were treated with five cisplatin cycles in the presence of the indicated doses of SK-124. Subsequently, organoids were immunostained to reveal cellular composition and injury markers P21 (top panels) and gammaH2AX (bottom panels). […] Proximal tubule cells are labeled with LTL staining and are reduced by cisplatin treatment and restored by SK-124 co-treatment.
For cisplatin induced injury, day 49 organoids were treated with 5 μM cisplatin in basal media after full media change. After 24 hours, full media exchanges were performed. This 24-hour treatment was performed twice a week, on day 52-53, day 56-57, day 59-60, and day 63-64 as well, for a total of five cisplatin treatments. Samples were obtained for RT-qPCR and immunostaining immediately following each 24-hour treatment with cisplatin, and from corresponding controls.
Following the treatment, the organoids were collected and immediately fixed in 4% PFA in PBS for 1 hour at room temperature, submerged in 30% sucrose overnight at 4° C., then embedded in O.C.T. Compound (4585. Fisher HealthCare). Subsequently, […] frozen sections were prepared via cryo-sectioning by a cryostat. After 1 hr blocking at room temperature, the sections were treated overnight at 4° C. with primary antibodies in antibody dilution buffer (ADB) with biotinylated LTL (1:200, B-1325, Vector), rat anti-CDH1 (1:500, ab11512, Abcam), goat anti-PODXL (1:500, AF1658, R&D Systems), as well as the antibody of interest, either mouse anti-p21 (1:200, NBP2-43697, Novus Biologicals), or rabbit anti-γH2AX (1:100, 2577, Cell Signaling) antibodies. For the optimum labeling of LTL by biotin/streptavidin interaction, the Streptavidin/Biotin Blocking Kit (SP-2002, Vector Laboratories) was applied according to the manufacturer's instructions. After washing, the samples were stained for 1 hour at RT with the nuclear dye-SYTOX Blue (1:500. S 11348, Invitrogen) and the corresponding secondary antibodies in ADB such as streptavidin-AF750 (1:500, S21384, Invitrogen), donkey anti-rat IgG-AF594 (1:500, A21209, Invitrogen), donkey anti-goat IgG-AF555 (1:500, A21432, Invitrogen), and donkey anti-rabbit IgG-AF488 (1:500, A21206, Invitrogen) for γH2AX or donkey anti-mouse IgG-AF488 (1:500, A21202, Invitrogen) for p21 antibodies as well as mouse anti-Meisl/⅔ (1:200, sc-101850, SantaCruz) conjugated antibody, and slides were mounted with Vectashield antifade mounting medium (H1000, Vector Laboratories).
Finally, the images were captured by the STELLARIS 8 confocal microscope (Leica Microsystems) using 25× water immersion objective lens. The mean diameters of the organoids were measured on the Leica Application Suite X (LAS X) software platform.

[3] = test system: whole kidney transcriptome; assay: bulk RNA-sequencing of whole kidney, adenine CKD mice; type: in vivo, mouse; conditions: bulk RNA-seq
Description: FIGS. 6A-6F. The effects of SK-124 treatment at the transcriptomic level in adenine-induced mouse chronic kidney disease. RNA-seq was performed on whole kidney RNA samples (n=7/group) from FIG. 1. Volcano plot show gene regulated (>2-fold change, p(adj)<0.05) by CKD (versus control diet, A) or in CKD by SK-124 (versus vehicle control, B). In Volcano plot, representative fibrosis markers (Col3a1, Vim, Serpinel) and proximal tubule integrity (Lrp2. Atplai, and Hnf4a) are shown. Scatterplot (C) and heatmap (D) showing integration of individual RNA-seq comparisons. […] (E) Single cell RNA-sequencing was performed on dissociated kidneys from adenine diet fed mice treated with vehicle or SK-124 (n=4/group). […] (F) Relative cellularity of each annotated cluster is shown in pie chart format for adenine+vehicle (CKD-Veh) or adenine+SK-124 (CKD-SK-124) mice.
as §1

[4] = adenine vs control diet, or SK-124 vs vehicle in CKD mice

| Compound | injury markers (Col8al, Fibronectin-1, Serpinel) (human kidney organoids [1]) | markers of intact proximal integrity (Lrp2 and Hnf4a) (human kidney organoids [1]) | genes regulated in cisplatin (versus control) (human kidney organoids [1]; scatterplot and heatmap, SK-124 vs DMSO in the setting of injury) | gammaH2AX induction (human kidney organoids [2]) | LTL-positive proximal tubule cells (human kidney organoids [2]) | P21 (human kidney organoids [2]) | gammaH2AX (human kidney organoids [2]) | P21 expression (human kidney organoids [2]) | patterns of dysregulated gene expression in CKD ([3]; scatterplot and heat map, SK-124 vs vehicle) | injury markers (Col3a1, Vim, Serpine1) [3, 4] | markers of intact proximal epithelial cells (Lrp2, Atpla1, Hnf4a) / epithelial cell integrity [3, 4] |
| --- | --- | --- | --- | --- | --- | --- | --- | --- | --- | --- | --- |
| CCc1nnc(-c2c(OC)cc(-c3cnc4cc(-c5cnn(C)c5)ccn34)cc2OC)o1 [SK-124, 2-[2,6-Dimethoxy-4-[7-(1-methylpyrazol-4-yl)imidazo[1,2-a]pyridin-3-yl]phenyl]-5-ethyl-1,3,4-oxadiazole] | reduced | restored | conversely regulated | markedly reduced | restored; also recorded: blocked by SK-124 treatment in a dose-dependent manner | reduced by SK-124 co-treatment in a dose-dependent manner; also recorded: blocked by SK-124 treatment in a dose-dependent manner | reduced by SK-124 co-treatment in a dose-dependent manner | markedly reduced | conversely regulated; also recorded: reversed | suppressed | preserved expression |
| N.N.[Cl][Pt][Cl] [cisplatin, reference compound] | induced | reduced |  | robust P21 (top) and gammaH2AX (bottom) induction | reduced; also recorded: loss of LTL-positive proximal tubule cells | robust cisplatin-induced P21 induction | induced | induces P21 expression; also recorded: robust P21 (top) and gammaH2AX (bottom) induction |  |  |  |
